Experimental data published in patent publication US20190256827A1, “EPIGENOME EDITING SYSTEMS AND METHODS” (STC.UNM, priority 2017, published 2019).

Test system: GRM2 locus in HEK293T cells
Assay: ChIP-qPCR of FLAG-ABI-P300 and H3K27Ac at the GRM2 locus
Type: cell-based, human
Description: To determine if the new method can be used to modify H3K27Ac at other gene loci, sgRNAs were designed that target the promoter region of other genes with low expression levels in HEK293T cells, including GRM2, HBA and MYOD1 (Table 1).
Human embryonic kidney cell HEK293T (American Type Culture Collection, Manassas, Va.) was cultured in Dulbecco's modified Eagle's medium (DMEM) (Gibco) with 10% FBS (Atlanta Biologicals), 1× GlutaMax (Gibco, Thermo Fisher Scientific, Inc., Waltham, Mass.), and 1× penicillin/streptomycin (Pen/Strep; Gibco, Thermo Fisher Scientific, Inc., Waltham, Mass.). Cells (100,000/ml) were plated in 24-well or 10-cm cell culture plate the day before transfection. For each well of 24-well plate transfection, 500 ng of dCas9-PYL-HA, 420 ng of FLAG-ABI-P300, and a total amount of 200-ng mix of gRNAs, with a 50-ng per each gRNA, were mixed with 50×(v/w) Opti-MEM (Gibco, Thermo Fisher Scientific, Inc., Waltham, Mass.), then incubate with the same volume of 3 μg PEI-Opti-MEM solution for 20 minutes at room temperature. Then, 100 μL of PEI-combined plasmids were added to every single well of 24-well plate and cultured for 24 hours before experiments were performed. For a 10 cm plate, 1 mL of PEI-combined plasmids were needed. After six hours transfection, cells were washed and incubated for another 1-72 hours before experiments were performed.
ChIP protocol was optimized from the method in Molecular Cloning, Fourth edition (Cold Spring Harbor Laboratory Press, 2012). In brief, cells cultured in a 10-cm plate were fixed with 1 mL of cross-linking buffer (0.1 M NaCl, 1 mM EDTA, 0.5 mM EGTA, 50 mM HEPES and 11% formaldehyde), and shaken in room temperature for 15 minutes. Then 1.1 mL of 1.25 M glycine was added to the solution to stop crosslinking. After washing three times in ice cold PBS, cells were scraped and suspended in 10 mL of lysis buffer (50 mM HEPES, 140 mM NaCl, 1 mM EDTA, 10% Glycerol, 0.5% NP40, 0.25% Triton X-100), and rocked at 4° C. for 10 minutes. […]

[1] = GRM2 sgRNAs, ABA treatment for 48 hours

With CC1=CC(=O)CC(C)(C)[C@@]1(O)/C=C/C(C)=C\C(=O)O [ABA, abscisic acid] the “induction and reversibility of H3K27Ac enrichment at the GRM2 locus” value (ABA 4-24 hours, then washing and 24 hours without ABA) was “rapidly induced upon ABA addition and reversed after ABA removal”, the “enrichment of FLAG-ABI-P300 at the GRM2 locus” value [1] was “causes the enrichment” and the “enrichment of H3K27Ac at the GRM2 locus” value [1] was “causes the enrichment”.
